Results taken from patent US20230003721A1, “MITOTHERAPEUTICS FOR THE TREATMENT OF BRAIN DISORDERS” (The University of Florida Research Foundation, Inc., priority 2019, published 2023).
pEC50: −log10 of the molar value. Structures can show the parent of a compound that is named as a salt.

Tests used:
primary neurons [1] = assay: CellTiter-Glo luminescence-based ATP assay; format: cell-based, mouse; conditions: for ATP: ATP orthogonal screen, 24 h; for pEC50 / Emax: Mus musculus, Primary neuron, dose response; for pEC50: 15 concentrations from 6 nM to 100 uM; for Emax: maximal percent increase relative to in-plate DMSO controls, read-out: ATP (Effect-size)
Procedure: Measurement of ATP production. The total amount of ATP produced by cultured primary neurons was measured by CellTiter-Glo Luminescent Cell Viability Assay (Promega). A recombinant luciferase enzyme catalyzed the mono-oxygenation of luciferin while hydrolyzing ATP produced by the cells and emitting light. We followed the manufacturer's protocol with primary neurons on DIV14.
(§1) A CLARIOstar (BMG LABTECH) microplate reader was used to measure fluorescence of TMRM and luminescence produced from the ATP.
(§2) Mitochondrial membrane potential (Δψm) and luminescence-based ATP assays. […] Changes of ΔΨm in each well were monitored using the mitochondrial-specific, fluorescent dye TMRM (tetramethyl rhodamine, methyl ester; Molecular Probes) and measured using a CLARIOstar plate reader. […] This concentration was used throughout our experiments. […] Wells in columns 1 and 24 were not loaded with TMRM; these served to measure background signal which was subtracted from the wells to which TMRM was added. To measure the total ATP levels in neurons we utilized the CellTiter-Glo® luminescence-based ATP assay (Promega). DIV13 primary neurons were cultured for 24 h with either DMSO carrier or compound treatment, followed by removing 55 μl culture medium from each well. Plates were maintained at room temperature for 25 m, and 25 μl of CellTiter-Glo® Reagent with the substrate luciferin was then added to each well (Promega). Plates were covered with aluminum foil and shaken vigorously on an orbital shaker for 10 m at 200 rpm and maintained at room temperature for an additional 2 m in dark before being read with the plate reader set to the luminescence mode.
Compound library and hit picking rules. We screened 2400 compounds from the MicroSource Spectrum library. […] FIGS. 13A-13E provide details of the assays used from which hit picking rules were made. In essence, the average fluorescence for each compound in the TMRM assay was determined and compared to the average fluorescence for compounds in the population on each assay plate to produce a Z-score. The Z-scores for each individual compound assayed across the four replicate plates was then averaged. Because of significant well location effects (outer rows) on each assay plate (FIG. 13G), we selected primary hits as enhancing well fluorescence above the μplate by 3σplate for inner row wells (rows C-N, columns 3-22), and by 2.5σplate for outer row wells (rows A, B, O, P; columns 3-22) (FIG. 14C-D). […] All orthogonal assays employed inner wells of the 384-well plates.

primary neurons [2] = assay: TMRM fluorescence assay of inner mitochondrial membrane potential (ΔΨm); conditions: for TMRM Primary: primary screen; for TMRM Primary / TMRM Rescreen: 24 h; for Emax / pEC50: Mus musculus, Primary neuron; for Emax: read-out: TMRM (Effect-size); for pEC50: read-out: TMRM-EC50
Procedure: Mitochondrial dyes. To assay the electrochemical potential across the inner mitochondrial membrane of cultured cells, we used the cell-permeant dye tetramethylrhodamine methyl ester (TMRM). For co-localization studies with Mt-GFP, TMRM was used at 20 nM on DIV14 and incubated for 30 min prior to imaging. For the orthogonal screen of compounds, TMRM was added to primary neurons on DIV13 at 10 nM, one hr prior to pintooling selected compounds, and incubated for 24 hr. Cells were washed 2× with pre-warmed fresh feeding media without B27 before measurements with a plate reader.
as §1, §2
Compound library and hit picking rules. We screened 2400 compounds from the MicroSource Spectrum library. […] FIGS. 13A-13E provide details of the assays used from which hit picking rules were made. In essence, the average fluorescence for each compound in the TMRM assay was determined and compared to the average fluorescence for compounds in the population on each assay plate to produce a Z-score. The Z-scores for each individual compound assayed across the four replicate plates was then averaged.

SMILES	ATP (primary neurons [1]) [Z-scores]	TMRM Primary (primary neurons [2]; 12.5 μM) [Z-scores]	TMRM Rescreen (primary neurons [2]) [Z-scores]	pEC50 (primary neurons [1])	Emax (primary neurons [1]) [%]	Emax (primary neurons [2]) [%]	pEC50 (primary neurons [2])	hit in TMRM primary screen when assayed at 4 h (primary neurons [2]; 12.5 μM, 4 h)
CN(C/C=C/c1ccccc1)Cc1cccc2ccccc12 [naftifine hydrochloride]	4.65	3.26	4.64					
OC(CNCC(O)C1CCc2cc(F)ccc2O1)C1CCc2cc(F)ccc2O1 (centres unmarked) [nebivolol hydrochloride]	6.92	3.73	5.29					
CCc1nn(CCCN2CCN(c3cccc(Cl)c3)CC2)c(=O)n1CCOc1ccccc1 [nefazodone hydrochloride]	6.30	4.00	6.11					
COC(=O)C1=C(C)NC(C)=C(C(=O)OCCN(C)Cc2ccccc2)C1c1cccc([N+](=O)[O-])c1 (centres unmarked) [nicardipine hydrochloride]	−3.75	4.22	−5.52					
COCCOC(=O)C1=C(C)NC(C)=C(C(=O)OC(C)C)C1c1cccc([N+](=O)[O-])c1 (centres unmarked) [nimodipine]	6.53	4.40	3.98					
CNCCC=C1c2ccccc2CCc2ccccc21 [nortriptyline hydrochloride]	5.66	3.77	5.25	6.70	16.5	21	6.26	
CCCCCCCCCCC[C@@H](C[C@@H]1OC(=O)[C@H]1CCCCCC)OC(=O)[C@H](CC(C)C)NC=O [orlistat]	2.36	3.43	1.56					
Clc1ccc(CO/N=C(\Cn2ccnc2)c2ccc(Cl)cc2Cl)c(Cl)c1 [oxiconazole nitrate]	5.76	3.08	3.28					
Fc1ccc([C@@H]2CCNC[C@H]2COc2ccc3c(c2)OCO3)cc1 [paroxetine hydrochloride]	4.41	3.53	3.26					
CC(C)(C)NC[C@H](O)COc1ccccc1C1CCCC1 [penbutolol sulfate]	3.39	3.16	5.35					
C/C(=C\CO)CCC[C@H](C)CCC[C@H](C)CCCC(C)C [phytol]	4.63	3.42	2.70					
CC[N+]1(C)CCCC(OC(=O)C(O)(c2ccccc2)c2ccccc2)C1 (centres unmarked) [pipenzolate bromide]	3.45	3.14	7.09					
CC(=O)c1ccc2c(c1)N(CCCN1CCC(CCO)CC1)c1ccccc1S2 [piperacetazine]	5.80	5.30	5.01					
CCN1CCCC(OC(=O)C(c2ccccc2)c2ccccc2)C1 (centres unmarked) [piperidolate hydrochloride]	5.72	3.58	3.76					
CCCCOc1ccc(OCCCN2CCOCC2)cc1 [pramoxine hydrochloride]	−1.97	2.93	−4.72					
OC(CCN1CCCC1)(c1ccccc1)C1CCCCC1 (centres unmarked) [procyclidine hydrochloride]	7.14	4.55	6.91	6.62	18.7	23.3	6.07	
CN(C)CCCN1c2ccccc2Sc2ccccc21 [promazine hydrochloride]	4.76	3.81	4.04					

SMILES	ATP (primary neurons [1]) [Z-scores]	TMRM Primary (primary neurons [2]; 12.5 μM) [Z-scores]	TMRM Rescreen (primary neurons [2]) [Z-scores]	pEC50 (primary neurons [1])	Emax (primary neurons [1]) [%]	Emax (primary neurons [2]) [%]	pEC50 (primary neurons [2])	hit in TMRM primary screen when assayed at 4 h (primary neurons [2]; 12.5 μM, 4 h)
CCCNCC(O)COc1ccccc1C(=O)CCc1ccccc1 (centres unmarked) [propafenone hydrochloride]	5.18	3.75	5.04					
CCCOc1ccc(C(=O)OCCN(CC)CC)cc1N [proparacaine hydrochloride]	4.11	3.43	4.65					
CCc1nc(N)nc(N)c1-c1ccc(Cl)cc1 [pyrimethamine]	6.54	3.43	4.00					pyrimethamine*
C=C[C@H]1CN2CC[C@H]1C[C@H]2[C@H](OC(=O)OCC)c1ccnc2ccc(OC)cc12 [quinine ethyl carbonate]	3.60	4.64	6.26					
COC(=O)[C@H]1[C@H]2C[C@H]3c4[nH]c5ccccc5c4CCN3C[C@H]2CC[C@@H]1O [rauwolscine hydrochloride]	8.40	4.30	8.77	6.00	20.9	29.4	5.34	
COC(=O)[C@H]1[C@H]2C[C@@H]3c4[nH]c5cc(OC)ccc5c4CCN3C[C@H]2C[C@@H](OC(=O)c2cc(OC)c(OC)c(OC)c2)[C@@H]1OC [reserpine]	5.29	7.44	7.89	6.92	20.5	22.5	6.19	
Cc1nc2sccn2c(=O)c1CCN1CCC(=C(c2ccc(F)cc2)c2ccc(F)cc2)CC1 [ritanserin]	4.40	5.25	5.83					
C=C[C@](C)(O)CC[C@@H]1[C@@]2(C)CCCC(C)(C)[C@@H]2CC[C@@]1(C)O [sclareol]	4.64	2.80	5.41					
CN[C@H]1CC[C@@H](c2ccc(Cl)c(Cl)c2)c2ccccc21 [sertraline hydrochloride]	4.82	3.42	4.15					
C1CCN2C[C@@H]3C[C@@H](CN4CCCC[C@@H]34)[C@H]2C1 [sparteine sulfate]	2.92	2.65	1.95					
COc1ccc(-n2nc(CCC(=O)N(C)O)cc2-c2ccc(Cl)cc2)cc1 [tepoxalin]	6.89	4.36	3.75					
CC(C)N1CCN(c2ccc(OCC3COC(Cn4cncn4)(c4ccc(Cl)cc4Cl)O3)cc2)CC1 (centres unmarked) [terconazole]	2.82	5.15	5.95					
CN1CCN(CC/C=C2/c3ccccc3Sc3ccc(S(=O)(=O)N(C)C)cc32)CC1 [thiothixene]	3.80	3.08	3.38					
COc1ccc(CN(CCN(C)C)c2ncccn2)cc1 [thonzylamine hydrochloride]	5.17	3.16	3.21					
CN(C)c1cc(NC(=O)CNC(C)(C)C)c(O)c2c1C[C@H]1C[C@H]3[C@H](N(C)C)C(O)=C(C(N)=O)C(=O)[C@@]3(O)C(O)=C1C2=O [tigecycline]	4.97	3.91	5.95					
CCNC1(c2cccs2)CCCCC1=O.Cl (centres unmarked) [tiletamine hydrochloride]	6.27	3.31	4.20					
Cc1ccc(C(=O)C(C)CN2CCCCC2)cc1 (centres unmarked) [tolperisone hydrochloride]	5.49	3.57	3.67					
